The values below come from ChEMBL document CHEMBL1201862, “PubChem BioAssay data set” (2004).

For assay [1], the target named is T1, Delta-type opioid receptor (Homo sapiens, UniProt P41143). The assay is described as follows: HTS Image-Based Screen for Antagonists of the DOR Receptor. [Related pubchem assays (depositor defined):AID1777, AID1785, AID1786, AID2133]. Type of assay: functional.
Another assay deals with Mu-type opioid receptor (Homo sapiens, UniProt P35372). Kind of assay: HTS Image-Based Screen for Agonists of the MOR Receptor. [Related pubchem assays (depositor defined):AID1777, AID1785, AID1786, AID2133]. Type of assay: functional.
Mu-type opioid receptor, sequence (P35372 whole entry): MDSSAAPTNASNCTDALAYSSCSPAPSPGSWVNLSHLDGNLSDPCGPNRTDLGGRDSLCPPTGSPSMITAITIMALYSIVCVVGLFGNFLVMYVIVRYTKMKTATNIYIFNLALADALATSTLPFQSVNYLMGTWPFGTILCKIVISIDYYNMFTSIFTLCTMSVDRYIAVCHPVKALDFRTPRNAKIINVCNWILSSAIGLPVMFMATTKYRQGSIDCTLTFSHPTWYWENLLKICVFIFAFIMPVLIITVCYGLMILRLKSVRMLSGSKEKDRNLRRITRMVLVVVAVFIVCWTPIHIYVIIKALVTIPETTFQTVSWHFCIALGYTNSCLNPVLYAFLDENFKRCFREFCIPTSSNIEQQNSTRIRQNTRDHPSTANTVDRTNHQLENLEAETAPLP
Assay [2] addresses E3 ubiquitin-protein ligase Mdm2 (Homo sapiens, UniProt Q00987). The assay is described as follows: MDM2-luc reporter signal enhancers, multi-concentration potency testing, MDM2 ubiquitin-protein ligase inhibitor program, whole-cell format, luminescence detection, 384-well microplate (AID 1394).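 Also: MDM2 E3 inhibitors raise luminescence so EC50 is for signal enhancement.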 Type of assay: functional.
In assay [3] the test system is Streptococcus sp. 'group A'. The assay is described as follows: Streptococcus pyogenes SK(-)GAS viability under kanamycin – luminescence, BacTiterGlo, confirmation, counter-screen for streptokinase expression inhibitor project, dose response (AID 1900). The class given is functional, organism-based.
In assay [4] the target is T1, Delta-type opioid receptor. Kind of assay: HTS Image-Based Screen for Agonists of the DOR Receptor. [Related pubchem assays (depositor defined):AID1777, AID1786, AID2133]. Type of assay: functional.
Assay [5] concerns the target T2, Beta-galactosidase (Escherichia coli, UniProt Q8VNN2). Kind of assay: PubChem AID 485352. Type of assay: functional.
The nature of assay [6]: Trypanosoma cruzi growth suppression in host cells – NIH3T3 host cells, beta-gal luminescence, confirmation (AID 2044).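 Also: intracellular parasites grown in NIH/3T3 mouse fibroblasts as host cells; luminescent beta-galactosidase reporter signal from transgenic T. cruzi replicating inside host cells; inhibitors lower the luminescence signal.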 Type of assay: functional, cell-based.
Assay [7] addresses T3, Type-1 angiotensin II receptor (Homo sapiens, UniProt P30556).
T3 sequence (P30556 whole entry): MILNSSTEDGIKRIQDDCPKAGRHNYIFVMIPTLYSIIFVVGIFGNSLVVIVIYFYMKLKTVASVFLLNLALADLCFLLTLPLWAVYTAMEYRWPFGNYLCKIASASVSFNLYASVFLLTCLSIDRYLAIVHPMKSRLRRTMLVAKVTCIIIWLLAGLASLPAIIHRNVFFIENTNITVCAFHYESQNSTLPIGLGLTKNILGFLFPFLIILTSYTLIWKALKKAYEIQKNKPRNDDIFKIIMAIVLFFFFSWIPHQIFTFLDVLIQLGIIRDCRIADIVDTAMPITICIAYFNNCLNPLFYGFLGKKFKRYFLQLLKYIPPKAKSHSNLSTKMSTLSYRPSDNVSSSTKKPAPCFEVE
Kind of assay: antagonism of angiotensin II type 1 receptor – cell-based, uHTS hits, selectivity assay for APJ receptor antagonist project, dose response (AID 463214).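 Also: antagonist potency against angiotensin II stimulated AT1 response.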 Type of assay: functional.

Assay [8] concerns the target T4, Kappa-type opioid receptor (Homo sapiens, UniProt P41145). Type of assay: functional.
A short description of assay [9]: NIH3T3 cell viability loss – ATP luminescence, mouse fibroblasts, counter-screen, dose response (AID 2010).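 Also: cells exposed to compound for about 90 hours before reading.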 Type of assay: functional, cell-based.
The target in assay [10] is T2, Beta-galactosidase. The class given is functional.
For assay [11], the target named is T4, Kappa-type opioid receptor. The class given is functional. This is another data set of the same source.
The subject of a further assay is Streptococcus. Kind of assay: GAS UMAA2166 growth inhibition – luminescence, BacTiterGlo, counter-screen for streptokinase expression inhibitor project, dose response (AID 1915).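 Also: potency for reduction of bacterial viability or growth.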 Type of assay: functional, organism-based. For orientation: A counterscreen serves to expose hits that act by an unwanted route or on another target.
Assay [12] deals with T5, Ubiquitin-conjugating enzyme E2 N (Homo sapiens, UniProt P61088).
T5 sequence (P61088 whole entry): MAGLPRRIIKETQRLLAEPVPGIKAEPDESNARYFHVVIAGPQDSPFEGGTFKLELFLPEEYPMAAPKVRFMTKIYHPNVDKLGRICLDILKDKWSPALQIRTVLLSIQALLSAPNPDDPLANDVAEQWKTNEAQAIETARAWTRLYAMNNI
The class given is functional.

The target in another assay is Nonstructural protein 1 (Influenza A virus, UniProt Q194T2). Type of assay: functional, Influenza A virus (A/California/07/2009(H1N1)).
Nonstructural protein 1, sequence (Q194T2 whole entry): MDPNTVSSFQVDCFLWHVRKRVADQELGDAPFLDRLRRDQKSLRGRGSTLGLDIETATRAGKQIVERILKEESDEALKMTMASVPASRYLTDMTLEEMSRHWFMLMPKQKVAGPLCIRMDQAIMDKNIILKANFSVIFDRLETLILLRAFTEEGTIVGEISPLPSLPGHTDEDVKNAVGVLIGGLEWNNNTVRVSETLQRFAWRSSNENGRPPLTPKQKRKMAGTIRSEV
For assay [13], the target named is T6, Heat shock factor protein 1 (Mus musculus, UniProt P38532).
T6 sequence (P38532 whole entry): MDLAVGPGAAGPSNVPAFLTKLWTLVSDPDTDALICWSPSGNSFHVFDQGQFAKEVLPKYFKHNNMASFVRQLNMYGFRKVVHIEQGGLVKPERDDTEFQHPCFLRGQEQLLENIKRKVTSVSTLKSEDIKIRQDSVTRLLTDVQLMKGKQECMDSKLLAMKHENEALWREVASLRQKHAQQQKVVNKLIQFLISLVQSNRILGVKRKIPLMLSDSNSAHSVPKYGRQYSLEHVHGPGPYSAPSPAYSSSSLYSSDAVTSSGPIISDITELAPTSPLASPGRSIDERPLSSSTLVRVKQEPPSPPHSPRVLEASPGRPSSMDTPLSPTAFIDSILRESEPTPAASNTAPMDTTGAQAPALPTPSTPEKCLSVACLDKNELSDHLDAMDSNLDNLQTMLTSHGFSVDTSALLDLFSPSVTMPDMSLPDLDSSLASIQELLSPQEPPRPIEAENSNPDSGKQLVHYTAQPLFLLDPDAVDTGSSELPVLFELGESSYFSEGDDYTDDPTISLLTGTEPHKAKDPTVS
The assay is described as follows: enhancement of HSF1-driven luciferase signal – cell-based, NIH3T3, luminescence, dose retest, confirmation (AID 435004).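 Also: stress induced by proteasome inhibitor MG132 added 30 min after compound; luciferase reporter driven by HSF1 response element in NIH3T3 cells; actives raise luminescence as potentiators of the MG132 stress response.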 Type of assay: functional.

Assay [14] is described as follows: bead-based luminescence quenchers, dual-tagged ARNT – biochemical, AlphaScreen, cherry-pick, artefact control for ARNT-TACC3 interaction inhibitor project, dose response (AID 651705).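 Also: AlphaScreen bead proximity signal that flags compounds interfering with the detection technology; potency reflects signal decrease which marks the compound as an assay artifact.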 The class given is functional.
Assay [15] has as its target T7, G-protein coupled receptor 55 (Homo sapiens, UniProt Q9Y2T6). The assay is described as follows: inhibition of LPI-stimulated GPR55 beta-arrestin translocation – imaging, U2OS, beta-arrestin-GFP, LPI agonist, primary screen (AID 2013).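 Also: antagonist potency measured as reduced agonist-driven arrestin aggregation.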 Type of assay: functional.
Assay [16] addresses T8, Cannabinoid receptor 1 (Homo sapiens, UniProt P21554). Kind of assay: SAR analysis of antagonists of the Cannabinoid Receptor 1 using an Image-Based Assay - Set 2. [Related pubchem assays (depositor defined):AID2013, AID2026]. Type of assay: functional.
The target in assay [17] is T9, G-protein coupled receptor 35 (Homo sapiens, UniProt Q9HC97). The assay is described as follows: SAR analysis of Agonists of the GPR35 Receptor using an Image-Based Assay - Set 2. [Related pubchem assays (depositor defined):AID2013, AID2026]. Type of assay: functional.
T9 sequence (Q9HC97 whole entry): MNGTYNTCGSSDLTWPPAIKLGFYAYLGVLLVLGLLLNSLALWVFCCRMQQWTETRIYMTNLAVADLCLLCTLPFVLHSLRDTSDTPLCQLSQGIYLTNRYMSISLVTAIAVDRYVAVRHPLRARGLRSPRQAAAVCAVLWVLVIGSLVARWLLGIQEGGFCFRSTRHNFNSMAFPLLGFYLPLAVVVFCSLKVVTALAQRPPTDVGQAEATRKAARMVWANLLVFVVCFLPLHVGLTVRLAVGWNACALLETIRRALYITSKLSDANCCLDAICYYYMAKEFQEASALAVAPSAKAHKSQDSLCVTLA
Assay [18] concerns the target T10, Cannabinoid receptor 2 (Homo sapiens, UniProt P34972). The assay is described as follows: SAR analysis of antagonists of the Cannabinoid Receptor 2 using an Image-Based Assay. [Related pubchem assays (depositor defined):AID2013, AID2026]. The class given is functional.
In assay [19] the target is T8, Cannabinoid receptor 1. Kind of assay: SAR analysis of agonists of the Cannabinoid Receptor 1 using an Image-Based Assay - Set 2. [Related pubchem assays (depositor defined):AID2013, AID2026]. Type of assay: functional.
Assay [20] deals with T9, G-protein coupled receptor 35. Kind of assay: SAR analysis of Antagonists of the GPR35 Receptor using an Image-Based Assay - Set 3. [Related pubchem assays (depositor defined):AID2013, AID2026]. Type of assay: functional.
Assay [21] deals with T7, G-protein coupled receptor 55. Kind of assay: blockade of LPI-induced GPR55 arrestin translocation – imaging, U2OS, beta-arrestin-GFP, LPI agonist, set 2, SAR follow-up (AID 2820). Type of assay: functional.
The target of assay [22] is T10, Cannabinoid receptor 2. Kind of assay: SAR analysis of agonists of the Cannabinoid Receptor 2 using an Image-Based Assay. [Related pubchem assays (depositor defined):AID2013, AID2026]. The class given is functional.

Activity calls are given as the source filed them. Some results are limits rather than exact numbers.

T1 sequence (P41143 whole entry): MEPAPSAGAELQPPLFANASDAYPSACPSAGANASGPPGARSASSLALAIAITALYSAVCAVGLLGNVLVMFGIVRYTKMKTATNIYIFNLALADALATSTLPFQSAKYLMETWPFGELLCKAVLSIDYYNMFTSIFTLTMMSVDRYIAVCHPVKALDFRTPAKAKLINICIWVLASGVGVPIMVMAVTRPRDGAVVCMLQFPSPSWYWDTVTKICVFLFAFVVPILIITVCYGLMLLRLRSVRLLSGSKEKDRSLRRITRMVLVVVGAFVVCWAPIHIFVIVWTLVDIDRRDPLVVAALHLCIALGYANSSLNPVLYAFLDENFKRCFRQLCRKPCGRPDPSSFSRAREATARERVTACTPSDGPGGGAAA
T2 sequence (Q8VNN2 whole entry): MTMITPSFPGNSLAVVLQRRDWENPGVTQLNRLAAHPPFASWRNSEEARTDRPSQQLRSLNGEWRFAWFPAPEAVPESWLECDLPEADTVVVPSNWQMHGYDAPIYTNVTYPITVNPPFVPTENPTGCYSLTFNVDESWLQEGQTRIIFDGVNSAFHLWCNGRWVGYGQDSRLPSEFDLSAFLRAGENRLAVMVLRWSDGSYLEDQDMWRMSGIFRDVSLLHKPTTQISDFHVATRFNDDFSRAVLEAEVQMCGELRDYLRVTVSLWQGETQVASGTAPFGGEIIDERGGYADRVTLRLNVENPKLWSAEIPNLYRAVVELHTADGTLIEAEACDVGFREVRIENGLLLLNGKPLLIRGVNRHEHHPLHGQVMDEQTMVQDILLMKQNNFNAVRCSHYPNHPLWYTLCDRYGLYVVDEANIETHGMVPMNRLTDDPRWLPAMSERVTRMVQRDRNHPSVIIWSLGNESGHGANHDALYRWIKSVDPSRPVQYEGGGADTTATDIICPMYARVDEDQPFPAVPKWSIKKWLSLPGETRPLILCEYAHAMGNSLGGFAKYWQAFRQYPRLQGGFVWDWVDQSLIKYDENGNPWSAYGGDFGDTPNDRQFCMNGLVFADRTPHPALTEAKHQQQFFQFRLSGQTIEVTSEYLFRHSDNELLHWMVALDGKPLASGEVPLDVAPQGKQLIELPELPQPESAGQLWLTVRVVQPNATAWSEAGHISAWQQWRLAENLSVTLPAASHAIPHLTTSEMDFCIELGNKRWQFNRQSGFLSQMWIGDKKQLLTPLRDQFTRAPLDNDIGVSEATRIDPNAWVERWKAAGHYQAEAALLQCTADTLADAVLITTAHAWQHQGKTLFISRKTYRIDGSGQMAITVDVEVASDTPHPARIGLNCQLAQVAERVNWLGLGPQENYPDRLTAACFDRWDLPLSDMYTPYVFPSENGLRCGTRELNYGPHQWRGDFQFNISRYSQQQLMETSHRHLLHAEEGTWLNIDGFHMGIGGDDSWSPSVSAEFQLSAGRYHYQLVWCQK
T4 sequence (P41145 whole entry): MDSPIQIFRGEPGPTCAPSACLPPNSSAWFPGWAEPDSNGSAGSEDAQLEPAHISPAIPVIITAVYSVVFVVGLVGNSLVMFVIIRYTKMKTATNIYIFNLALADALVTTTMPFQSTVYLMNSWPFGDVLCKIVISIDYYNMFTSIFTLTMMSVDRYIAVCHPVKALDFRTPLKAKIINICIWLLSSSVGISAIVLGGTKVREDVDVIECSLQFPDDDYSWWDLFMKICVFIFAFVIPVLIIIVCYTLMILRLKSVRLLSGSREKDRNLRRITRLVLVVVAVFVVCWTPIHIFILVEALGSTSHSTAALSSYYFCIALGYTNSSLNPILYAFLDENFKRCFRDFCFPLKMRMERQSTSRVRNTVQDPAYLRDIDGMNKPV
T7 sequence (Q9Y2T6 whole entry): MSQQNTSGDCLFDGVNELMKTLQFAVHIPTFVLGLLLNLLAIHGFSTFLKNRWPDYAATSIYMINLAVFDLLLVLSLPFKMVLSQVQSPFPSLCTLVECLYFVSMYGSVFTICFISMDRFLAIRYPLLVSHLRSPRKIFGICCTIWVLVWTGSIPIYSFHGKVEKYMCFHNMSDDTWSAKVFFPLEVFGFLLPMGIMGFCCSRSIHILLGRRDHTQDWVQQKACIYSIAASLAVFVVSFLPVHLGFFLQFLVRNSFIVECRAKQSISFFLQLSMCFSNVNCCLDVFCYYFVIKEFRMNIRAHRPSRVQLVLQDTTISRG
T10 sequence (P34972 whole entry): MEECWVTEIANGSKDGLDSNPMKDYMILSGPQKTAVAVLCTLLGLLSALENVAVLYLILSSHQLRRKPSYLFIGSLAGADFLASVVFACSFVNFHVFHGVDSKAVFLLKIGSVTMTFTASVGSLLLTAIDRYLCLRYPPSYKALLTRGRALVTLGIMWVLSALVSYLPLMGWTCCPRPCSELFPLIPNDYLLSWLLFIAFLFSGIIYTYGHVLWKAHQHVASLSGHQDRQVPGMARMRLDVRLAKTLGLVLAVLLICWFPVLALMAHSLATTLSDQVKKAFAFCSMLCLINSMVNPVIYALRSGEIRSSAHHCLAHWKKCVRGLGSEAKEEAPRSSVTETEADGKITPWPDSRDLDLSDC
T8 sequence (P21554 whole entry): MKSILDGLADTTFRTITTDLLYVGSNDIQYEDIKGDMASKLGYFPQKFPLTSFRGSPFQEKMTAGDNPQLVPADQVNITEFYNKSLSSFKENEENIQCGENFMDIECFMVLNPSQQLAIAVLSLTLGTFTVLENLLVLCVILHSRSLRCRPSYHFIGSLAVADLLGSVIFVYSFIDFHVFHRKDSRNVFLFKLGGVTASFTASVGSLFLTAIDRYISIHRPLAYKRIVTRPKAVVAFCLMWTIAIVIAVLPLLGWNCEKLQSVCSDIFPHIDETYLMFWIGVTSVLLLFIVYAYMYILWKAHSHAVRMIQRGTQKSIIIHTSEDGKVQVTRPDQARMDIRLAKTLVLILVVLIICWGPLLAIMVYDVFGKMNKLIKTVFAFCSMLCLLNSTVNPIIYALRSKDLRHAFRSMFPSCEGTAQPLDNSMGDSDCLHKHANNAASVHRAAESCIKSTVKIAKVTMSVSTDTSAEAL
E3 ubiquitin-protein ligase Mdm2, sequence (Q00987 whole entry): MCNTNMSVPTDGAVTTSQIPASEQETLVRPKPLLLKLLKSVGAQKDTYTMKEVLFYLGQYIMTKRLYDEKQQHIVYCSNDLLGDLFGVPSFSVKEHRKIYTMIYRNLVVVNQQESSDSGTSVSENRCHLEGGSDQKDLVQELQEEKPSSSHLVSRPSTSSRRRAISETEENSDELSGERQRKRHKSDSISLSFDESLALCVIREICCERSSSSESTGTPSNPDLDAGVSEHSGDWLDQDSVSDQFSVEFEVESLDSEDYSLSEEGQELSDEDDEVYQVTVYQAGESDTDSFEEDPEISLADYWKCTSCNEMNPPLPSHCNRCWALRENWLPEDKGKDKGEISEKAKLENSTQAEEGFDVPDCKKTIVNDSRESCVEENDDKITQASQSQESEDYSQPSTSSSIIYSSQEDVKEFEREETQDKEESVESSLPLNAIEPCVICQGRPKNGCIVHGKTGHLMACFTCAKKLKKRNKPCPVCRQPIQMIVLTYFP

As usually defined, the IC50 is the concentration that inhibits the measured activity by half. For orientation: EC50 means the concentration needed to bring the measured effect to its halfway point. A word on the AC50: it is the concentration at which the activity in the assay is half-maximal. As to `COCc1cc(O)nc(Nc2nc3ccc(C)cc3o2)n1`, the IC50 was > 32 µM (inactive) in assay [1]; 6.83 µM (active) in [7]; 7.12 µM (active) in [8]; greater than 32 µM in assay [11]; > 20 µM (inactive) in assay [12]; 16.1 µM (active) on Nonstructural protein 1. Besides, the EC50 at Mu-type opioid receptor is > 32 µM (inactive); in assay [2], 0.56 µM (active); in assay [3], 2.11 µM (active); in [4], > 32 µM (inactive); on Beta-galactosidase [5], > 40 µM (inactive); in [6], 1.87 µM (active). For the same compound, the EC50 in [9] is 4.89 µM (active); on Beta-galactosidase [10], > 31.5 µM (inactive); in the assay on Streptococcus, 7.89 µM (active); in assay [13] it was 11.1 µM (active). In assay [14], the AC50 was 103 µM (active).
With `O=C(N1CCC(n2nc(-c3ccccc3)oc2=O)CC1)C1(c2ccc(Cl)cc2)CC1`, the IC50 in assay [15] was 0.68 µM (active); at Cannabinoid receptor 1 [16], 9.6 µM (active); at Cannabinoid receptor 2 [18], > 32 µM (inactive); in [20], > 32 µM (inactive); in assay [21] it was 0.76 µM (active). For the same compound, the EC50 (in [17]; on Cannabinoid receptor 1 [19]; on Cannabinoid receptor 2 [22]) was > 32 µM (inactive) in each case.
